Experimental data taken from US12187723B2 (BRISTOL-MYERS SQUIBB COMPANY, priority 2019, dated 2025).

Experiments:
[1] = molecular target: T1, human TLR7 (Homo sapiens, UniProt Q9NYK1); assay: TLR7 inhibition reporter assay (HEK-Blue SEAP); format: cell-based; conditions: HEK-Blue cells overexpressing human TLR7, gardiquimod 7.5 μM, 22 hour incubation
T1 construct: host or cells: HEK-Blue cells
T1 sequence (Q9NYK1 27-1049): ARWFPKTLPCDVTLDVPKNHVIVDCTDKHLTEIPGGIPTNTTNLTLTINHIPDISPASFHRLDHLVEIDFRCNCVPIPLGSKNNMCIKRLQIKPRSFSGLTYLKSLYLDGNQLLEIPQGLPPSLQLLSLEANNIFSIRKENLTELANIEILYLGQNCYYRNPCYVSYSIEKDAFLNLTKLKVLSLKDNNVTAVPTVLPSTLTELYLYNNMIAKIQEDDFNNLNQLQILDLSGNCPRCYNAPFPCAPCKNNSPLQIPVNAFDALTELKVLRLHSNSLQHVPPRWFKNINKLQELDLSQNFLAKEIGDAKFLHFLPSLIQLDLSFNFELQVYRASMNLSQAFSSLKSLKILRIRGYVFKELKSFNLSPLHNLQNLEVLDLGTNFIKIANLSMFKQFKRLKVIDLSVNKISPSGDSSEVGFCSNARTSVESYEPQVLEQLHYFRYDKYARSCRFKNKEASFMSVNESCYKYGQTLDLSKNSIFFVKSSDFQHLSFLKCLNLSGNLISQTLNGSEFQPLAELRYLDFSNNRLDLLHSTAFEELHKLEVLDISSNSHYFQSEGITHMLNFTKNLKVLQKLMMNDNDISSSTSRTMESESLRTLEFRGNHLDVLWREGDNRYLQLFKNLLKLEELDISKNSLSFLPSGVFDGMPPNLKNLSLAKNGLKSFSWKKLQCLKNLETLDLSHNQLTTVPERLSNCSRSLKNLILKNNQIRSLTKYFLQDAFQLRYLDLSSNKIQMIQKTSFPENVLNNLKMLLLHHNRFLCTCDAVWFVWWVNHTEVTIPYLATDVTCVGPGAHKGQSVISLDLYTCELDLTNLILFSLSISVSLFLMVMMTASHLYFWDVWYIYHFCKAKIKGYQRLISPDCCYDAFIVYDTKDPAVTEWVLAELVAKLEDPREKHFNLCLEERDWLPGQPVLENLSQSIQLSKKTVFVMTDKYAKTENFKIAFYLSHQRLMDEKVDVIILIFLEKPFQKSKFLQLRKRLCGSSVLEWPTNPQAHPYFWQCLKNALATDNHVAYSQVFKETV
Summary of the method: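 22 h, 37° C, 5% CO2 incubation; compounds 0.05 nM-50 μM final; TLR7 cells 15000/well, TLR8 20,000/well. Readout: SEAP via HEK-Blue Detection medium. % inhibition = signal reduction versus agonist + DMSO wells, referenced to known inhibitor.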

[2] = molecular target: T2, human TLR8 (Homo sapiens, UniProt Q9NR97); assay: TLR8 inhibition reporter assay (HEK-Blue SEAP); format: cell-based; conditions: HEK-Blue cells overexpressing human TLR8, R848 15.9 μM, 22 hour incubation
T2 construct: host or cells: HEK-Blue cells
T2 sequence (Q9NR97 27-1041): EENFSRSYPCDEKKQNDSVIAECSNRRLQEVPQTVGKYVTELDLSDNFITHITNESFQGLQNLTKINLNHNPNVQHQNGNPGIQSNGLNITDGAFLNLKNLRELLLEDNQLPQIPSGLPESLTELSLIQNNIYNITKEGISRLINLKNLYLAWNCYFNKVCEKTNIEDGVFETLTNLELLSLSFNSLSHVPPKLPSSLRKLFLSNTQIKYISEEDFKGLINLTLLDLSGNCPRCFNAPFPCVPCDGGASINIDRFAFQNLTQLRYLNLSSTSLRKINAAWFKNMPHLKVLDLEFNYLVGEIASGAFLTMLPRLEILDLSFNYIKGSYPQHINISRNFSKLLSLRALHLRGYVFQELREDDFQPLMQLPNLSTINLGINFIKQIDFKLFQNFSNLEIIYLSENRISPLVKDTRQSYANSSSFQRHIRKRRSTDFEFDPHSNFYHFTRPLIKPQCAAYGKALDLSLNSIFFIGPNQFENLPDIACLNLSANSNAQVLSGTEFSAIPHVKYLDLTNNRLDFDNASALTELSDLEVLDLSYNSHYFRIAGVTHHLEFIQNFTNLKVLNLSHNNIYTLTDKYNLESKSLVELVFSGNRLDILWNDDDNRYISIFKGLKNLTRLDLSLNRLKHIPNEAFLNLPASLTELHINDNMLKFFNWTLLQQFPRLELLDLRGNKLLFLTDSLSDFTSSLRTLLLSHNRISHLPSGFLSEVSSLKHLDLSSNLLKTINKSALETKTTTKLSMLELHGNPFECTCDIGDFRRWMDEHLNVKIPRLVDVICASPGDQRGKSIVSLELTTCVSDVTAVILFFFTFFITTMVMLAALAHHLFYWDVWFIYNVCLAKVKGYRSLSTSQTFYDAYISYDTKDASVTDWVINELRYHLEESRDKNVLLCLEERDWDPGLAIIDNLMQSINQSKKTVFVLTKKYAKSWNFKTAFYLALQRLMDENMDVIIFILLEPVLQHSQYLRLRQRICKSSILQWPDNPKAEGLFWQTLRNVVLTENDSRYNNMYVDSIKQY
Summary of the method: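 Compound treatment: 30 min, RT, 0.05 nM–50 μM final. Agonist: TLR7 gardiquimod 7.5 μM; TLR8 R848 15.9 μM; TLR9 ODN2006 5 nM. Incubation 22 h, 37 °C, 5% CO2. Readout SEAP, HEK-Blue Detection.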

IC50 [1] [nM] | IC50 [2] [nM] | SMILES
13.4 | 13.7 | CCc1cc2c(cc1-c1cc(OC)c3ncnn3c1)[nH]c(=O)n2[C@@H]1CCCN(C2CCCOC2)C1 (stereo partly drawn) [Example 215, 6-ethyl-5-(8-methoxy-[1,2,4]triazolo[1,5-a]pyridin-6-yl)-1-((3R)-1-(tetrahydro-2H-pyran-3-yl)piperidin-3-yl)-1,3-dihydro-2H-benzo[d]imidazol-2-one]
14.6 | 26.4 | COc1cc(-c2cc3[nH]c(=O)n([C@@H]4CCCN(C5CCOC5)C4)c3cc2C(C)C)cn2ncnc12 (stereo partly drawn) [Example 216, 6-isopropyl-5-(8-methoxy-[1,2,4]triazolo[1,5-a]pyridin-6-yl)-1-((3R)-1-(tetrahydrofuran-3-yl)piperidin-3-yl)-1,3-dihydro-2H-benzo[d]imidazol-2-one]
11.2 | 5.4 | COc1cc(-c2cc3[nH]c(=O)n([C@@H]4CCCN(C5CCOC5)C4)c3cc2C(C)C)cn2ncnc12 (stereo partly drawn) [Example 217, 6-isopropyl-5-(8-methoxy-[1,2,4]triazolo[1,5-a]pyridin-6-yl)-1-((3R)-1-(tetrahydrofuran-3-yl)piperidin-3-yl)-1,3-dihydro-2H-benzo[d]imidazol-2-one]
244 | 100 | COc1cc(-c2cc3[nH]c(=O)n([C@H]4CCCN(CC(N)=O)C4)c3cc2C(C)C)cn2ncnc12 [Example 220, (S)-2-(3-(6-isopropyl-5-(8-methoxy-[1,2,4]triazolo[1,5-a]pyridin-6-yl)-2-oxo-2,3-dihydro-1H-benzo[d]imidazol-1-yl)piperidin-1-yl)acetamide]
11.3 | 5.67 | COCCN1CCC[C@H](n2c(=O)[nH]c3cc(-c4cc(OC)c5ncnn5c4)c(C(C)C)cc32)C1 [Example 221, (S)-6-isopropyl-5-(8-methoxy-[1,2,4]triazolo[1,5-a]pyridin-6-yl)-1-(1-(2-methoxyethyl)piperidin-3-yl)-1,3-dihydro-2H-benzo[d]imidazol-2-one]
138 | 53.2 | COc1cc(-c2cc3[nH]c(=O)n([C@H]4CCCN(CCS(C)(=O)=O)C4)c3cc2C(C)C)cn2ncnc12 [Example 222, (S)-6-isopropyl-5-(8-methoxy-[1,2,4]triazolo[1,5-a]pyridin-6-yl)-1-(1-(2-(methylsulfonyl)ethyl)piperidin-3-yl)-1,3-dihydro-2H-benzo[d]imidazol-2-one]
16.9 | 9.01 | COCCN1CCC(n2c(=O)[nH]c3cc(-c4cc(OC)c5ncnn5c4)c(C(C)C)cc32)CC1 [Example 223, 6-isopropyl-5-(8-methoxy-[1,2,4]triazolo[1,5-a]pyridin-6-yl)-1-(1-(2-methoxyethyl)piperidin-4-yl)-1,3-dihydro-2H-benzo[d]imidazol-2-one]
82.4 | 25.5 | COc1cc(-c2cc3[nH]c(=O)n(C4CCN(CCS(C)(=O)=O)CC4)c3cc2C(C)C)cn2ncnc12 [Example 224, 6-isopropyl-5-(8-methoxy-[1,2,4]triazolo[1,5-a]pyridin-6-yl)-1-(1-(2-(methylsulfonyl)ethyl)piperidin-4-yl)-1,3-dihydro-2H-benzo[d]imidazol-2-one]
1.13 | 4.15 | COCCN1CCC[C@@H](n2c(=O)[nH]c3cc(-c4cc(OC)c5ncnn5c4)c(C(C)C)cc32)C1 [Example 226, (R)-6-isopropyl-5-(8-methoxy-[1,2,4]triazolo[1,5-a]pyridin-6-yl)-1-(1-(2-methoxyethyl)piperidin-3-yl)-1,3-dihydro-2H-benzo[d]imidazol-2-one]
2.86 | 4.42 | CCc1cc2c(cc1-c1cc(OC)c3ncnn3c1)[nH]c(=O)n2[C@@H]1CCCN(CCOC)C1 [Example 227, (R)-6-ethyl-5-(8-methoxy-[1,2,4]triazolo[1,5-a]pyridin-6-yl)-1-(1-(2-methoxyethyl)piperidin-3-yl)-1,3-dihydro-2H-benzo[d]imidazol-2-one]
34.9 | 38.7 | CCc1cc2c(cc1-c1cc(OC)c3ncnn3c1)[nH]c(=O)n2[C@@H]1CCCN(C(=O)CN(C)C)C1 [Example 228, (R)-1-(1-(dimethylglycyl)piperidin-3-yl)-6-ethyl-5-(8-methoxy-[1,2,4]triazolo[1,5-a]pyridin-6-yl)-1,3-dihydro-2H-benzo[d]imidazol-2-one]
1.68 | 0.81 | COc1cc(-c2cc3[nH]c(=O)n(C4CCC(N5CCCC5)CC4)c3cc2C(C)C)cn2ncnc12 (stereo not shown) [Example 231, 6-isopropyl-5-(8-methoxy-[1,2,4]triazolo[1,5-a]pyridin-6-yl)-1-(4-(pyrrolidin-1-yl)cyclohexyl)-1,3-dihydro-2H-benzo[d]imidazol-2-one]
1.4 | 0.44 | COc1cc(-c2cc3[nH]c(=O)n(C4CCC(N5CCCC5)CC4)c3cc2C(C)C)cn2ncnc12 (stereo not shown) [Example 232, 6-isopropyl-5-(8-methoxy-[1,2,4]triazolo[1,5-a]pyridin-6-yl)-1-(4-(pyrrolidin-1-yl)cyclohexyl)-1,3-dihydro-2H-benzo[d]imidazol-2-one]
1.31 | 0.33 | COc1cc(-c2cc3[nH]c(=O)n(C4CCC(N5CC(OC)C5)CC4)c3cc2C(C)C)cn2ncnc12 (stereo not shown) [Example 237, 6-isopropyl-5-(8-methoxy-[1,2,4]triazolo[1,5-a]pyridin-6-yl)-1-(4-(3-methoxyazetidin-1-yl)cyclohexyl)-1,3-dihydro-2H-benzo[d]imidazol-2-one]
0.81 | 0.26 | COc1cc(-c2cc3[nH]c(=O)n(C4CCC(N5CC(OC)C5)CC4)c3cc2C(C)C)cn2ncnc12 (stereo not shown) [Example 238, 6-isopropyl-5-(8-methoxy-[1,2,4]triazolo[1,5-a]pyridin-6-yl)-1-(4-(3-methoxyazetidin-1-yl)cyclohexyl)-1,3-dihydro-2H-benzo[d]imidazol-2-one]
1.69 | 0.21 | COc1cc(-c2cc3[nH]c(=O)n(C4CCC(N5CCC6(CC5)COC6)CC4)c3cc2C(C)C)cn2ncnc12 (stereo not shown) [Example 239, 1-(4-(2-oxa-7-azaspiro[3.5]nonan-7-yl)cyclohexyl)-6-isopropyl-5-(8-methoxy-[1,2,4]triazolo[1,5-a]pyridin-6-yl)-1,3-dihydro-2H-benzo[d]imidazol-2-one]
3.52 | 0.13 | COc1cc(-c2cc3[nH]c(=O)n(C4CCC(N5CCC6(CC5)COC6)CC4)c3cc2C(C)C)cn2ncnc12 (stereo not shown) [Example 240, 1-(4-(2-oxa-7-azaspiro[3.5]nonan-7-yl)cyclohexyl)-6-isopropyl-5-(8-methoxy-[1,2,4]triazolo[1,5-a]pyridin-6-yl)-1,3-dihydro-2H-benzo[d]imidazol-2-one]
